Laboratory results: PubChem BioAssay (NCI)
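A five-concentration, 48-hour dose response in 96-well plates underlies each endpoint, interpolated linearly between surrounding concentrations. The concentration for full growth arrest is given as TGI.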

Legend:
Assay in all cases: inhibition of tumour cell growth, NCI panel, 48 h
COLO 205 colon = test system: COLO 205 colon
DLD-1 colon = test system: DLD-1 colon
K-562 leukemia = test system: K-562 leukemia
NCI-H23 lung = test system: NCI-H23 lung
HT29 colon = test system: HT29 colon
HCT-15 colon = test system: HCT-15 colon
IGROV1 ovarian = test system: IGROV1 ovarian
HL-60(TB) leukemia = test system: HL-60(TB) leukemia
RPMI-8226 leukemia = test system: RPMI-8226 leukemia
M14 melanoma = test system: M14 melanoma
HOP-92 NSCLC = test system: HOP-92 NSCLC
UACC-257 melanoma = test system: UACC-257 melanoma
OVCAR-3 ovarian = test system: OVCAR-3 ovarian
OVCAR-8 ovarian = test system: OVCAR-8 ovarian
KM12 colon = test system: KM12 colon
HOP-18 NSCLC = test system: HOP-18 NSCLC
ACHN renal = test system: ACHN renal
SNB-78 CNS = test system: SNB-78 CNS
A549 NSCLC = test system: A549 NSCLC
SF-268 CNS = test system: SF-268 CNS
786-0 renal = test system: 786-0 renal
XF 498 CNS = test system: XF 498 CNS
SK-OV-3 ovarian = test system: SK-OV-3 ovarian
LXFL 529 NSCLC = test system: LXFL 529 NSCLC
UO-31 renal = test system: UO-31 renal
NCI-H460 lung = test system: NCI-H460 lung
OVCAR-5 ovarian = test system: OVCAR-5 ovarian
NCI-H226 lung = test system: NCI-H226 lung
HCC-2998 colon = test system: HCC-2998 colon
DMS 273 small cell lung = test system: DMS 273 small cell lung
SK-MEL-28 melanoma = test system: SK-MEL-28 melanoma
OVCAR-4 ovarian = test system: OVCAR-4 ovarian
MOLT-4 leukemia = test system: MOLT-4 leukemia
SF-539 CNS = test system: SF-539 CNS
CCRF-CEM leukemia = test system: CCRF-CEM leukemia
U251 CNS = test system: U251 CNS
M19-MEL melanoma = test system: M19-MEL melanoma
SF-295 CNS = test system: SF-295 CNS
HCT-116 colon = test system: HCT-116 colon
SK-MEL-2 melanoma = test system: SK-MEL-2 melanoma
MALME-3M melanoma = test system: MALME-3M melanoma
SN12C renal = test system: SN12C renal
TK-10 renal = test system: TK-10 renal
SNB-75 CNS = test system: SNB-75 CNS
CAKI-1 renal = test system: CAKI-1 renal
SW-620 colon = test system: SW-620 colon
HOP-62 NSCLC = test system: HOP-62 NSCLC
SK-MEL-5 melanoma = test system: SK-MEL-5 melanoma
KM20L2 colon = test system: KM20L2 colon
A498 renal = test system: A498 renal
EKVX NSCLC = test system: EKVX NSCLC
RXF 393 renal = test system: RXF 393 renal
NCI-H522 lung = test system: NCI-H522 lung
SNB-19 CNS = test system: SNB-19 CNS
LOX IMVI melanoma = test system: LOX IMVI melanoma
DMS 114 small cell lung = test system: DMS 114 small cell lung
SR leukemia = test system: SR leukemia
UACC-62 melanoma = test system: UACC-62 melanoma

Measured: TGI

CSC1(C)CC2C(CC1N1CCCCC1)C2(C)C (configuration not stated)
not listed: CAKI-1 renal | SW-620 colon | HOP-62 NSCLC | SK-MEL-5 melanoma | KM20L2 colon | A498 renal | EKVX NSCLC | RXF 393 renal | NCI-H522 lung | SNB-19 CNS | LOX IMVI melanoma | DMS 114 small cell lung | SR leukemia | UACC-62 melanoma
> 100 µM: all other assays above

CCOC(=O)C(=O)/C=C(\C)Nc1c(NC2OCC(OC(C)=O)C(OC(C)=O)C2OC(C)=O)nc(SC)[nH]c1=O (configuration not stated)
not listed: HL-60(TB) leukemia | SNB-78 CNS | NCI-H226 lung | SF-539 CNS
> 100 µM: all other assays above

CCOC(=O)N1C=NC23C(c4ccccc4)C(c4ccccc4)C12C(=O)N(C)C(=O)N3C (configuration not stated)
not listed: SNB-78 CNS | NCI-H226 lung | SF-539 CNS | DMS 114 small cell lung
> 100 µM: all other assays above
